Target: CD28/CD80 binding (Homo sapiens, UniProt P10747)
Assay: AFM measurement of binding force between imm-CD28 on chips and afm-CD80 on probe, blocking by drug
Text: (a) Immobilizing receptor and ligand [11]: At least one receptor is immobilized on a surface of each one of a plurality of chips and at least one ligand to the receptor is immobilized on a surface of a probe of an AFM. Therein, the chip can be extended to a micro-array chip immobilized with different kinds of receptors.
(b) Binding drug to receptor [12]: A drug is flowed through the chip to bind the drug to the receptor.
(c) Measuring binding force: The AFM is used to processing point-to-point detection for acquiring blocking effect by the drug according to the binding forces between the receptor and the ligand. If the binding force between the drug and the receptor is bigger than the binding force between the receptor and the ligand, the drug is identified as capable of breaking the bond between the receptor and the ligand, vice versa.
Take immuno-suppressive agent as an example. In FIG. 2, a receptor of T-cell membrane, CD28, is immobilized on chips, which is a protein labeled as imm-CD28 [21]. A ligand to CD28, ligand-CD80, is immobilized on a probe of an AFM, which is a receptor on immune B-cell membrane and is labeled as afm-CD80 [31]. Since the binding between CD80 and CD28 is related to human anaphylactic reaction, a small-molecule drug can be applied to block the binding between CD28 and CD80 for reducing immuno-reaction and anaphylactic reaction if the binding force between the drug and CD28 is bigger than that between CD80 and CD28.
Take an immuno-suppressive drug candidate, cynarin, as an example. The imm-CD28 [21] is immobilized on the chips and the afm-CD80 [31] is immobilized on the probe. Then the drug candidate, cynarin, is flowed through the chips to be bond with imm-CD28 [21] and separated from other components. In FIG. 3, a binding force (q1) between CD28 and CD80 on afm-CD80 [31] is great before adding cynarin. After adding the effective immuno-suppressive drug candidate 3, cynarin, the bond between CD28 and CD80 is blocked to form a very small binding force (q2). That is, q1>>q2. […]

Sequence of CD28/CD80 binding (P10747 19-152 limits assumed): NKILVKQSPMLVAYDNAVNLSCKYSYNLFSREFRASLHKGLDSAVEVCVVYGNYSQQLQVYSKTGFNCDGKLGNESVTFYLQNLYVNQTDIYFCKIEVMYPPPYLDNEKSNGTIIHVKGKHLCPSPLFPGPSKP

difference between the binding forces before and after adding cynarin (q1−q2) (167 pN−90 pN): about 77 pN
average binding force between CD28 and CD80 after adding cynarin (q2) (after adding cynarin, average of 100 positions on chip, before adding about 167 pN±14 (q1), FIG. 4B): about 90 pN
difference between the binding forces before and after adding cynarin, percent (relative to q1 167 pN): ~46%
Structure (SMILES): O=C(/C=C/c1ccc(O)c(O)c1)O[C@@H]1C[C@@](OC(=O)/C=C/c2ccc(O)c(O)c2)(C(=O)O)C[C@@H](O)[C@@H]1O [cynarin]
